The values that follow come from patent US8207160B2, “Tetrahydrobenzazepines and their use in he modulation of the dopamine D3 receptor” (Abbott GmbH & Co. KG, priority 2003, dated 2012).

Read-outs that look alike come from different tables or passages of the source.

The target of test [1] is T1, human dopamine D3 receptors (Homo sapiens, UniProt P35462).
T1 construct: expressed in transfected cells; membranes used
Description: Dopamine D3 receptor binding, displacement of [125I]-iodosulpride. As to the method:
(§1) C) Biological Investigations—Receptor-Binding Studies: • The substance to be tested was dissolved either in methanol/Chremophor®) (BASF-AG) or in dimethyl sulfoxide and then diluted with water to the desired concentration.
I. Dopamine D3 Receptor: • The mixture (0.250 ml) was composed of membranes from ˜10^6 HEK-293 cells with stably expressed human dopamine D3 receptors, 0.1 nM [^125I]-iodosulpride and incubation buffer (total binding) or additionally test substance (inhibition plot) or 1 μM spiperone (nonspecific binding). Triplicate assays were carried out. • The incubation buffer contained 50 mM Tris, 120 mM NaCl, 5 mM KCl, 2 mM CaCl2, 2 mM MgCl2 and 0.1% bovine serum albumin, 10 μM quinolone, 0.1% ascorbic acid (prepared freshly each day). The buffer was adjusted to pH 7.4 with HCl.
(§2) III. Measurement and Evaluation: • After incubation at 25° C. for 60 minutes, the mixtures were filtered through Wathman GF/B glass fiber filters under vacuum using a cell harvester. The filters were transferred using a filter transfer system into scintillation vials. After addition of 4 ml of Ultima Gold® (Packard), the samples were shaken for one hour and then the radioactivity was counted in a Beta Counter (Packard, Tricarb 2000 or 2200CA). The cp values were converted into dpm on the basis of a standard quench series with the aid of the program supplied with the instrument. • The inhibition plots were evaluated by iterative nonlinear regression analysis using the Statistical Analysis System (SAS), similar to the “LIGAND” program described by Munson and Rodbard. • The compounds of the invention show very good affinities for the D3 receptor in these assays (<100 nM, frequently <50 nM) and bind selectively to the D3 receptor.
Background: Displacement assays read how much labelled ligand stays bound in the presence of the test substance.

For test [2], the target named is T2, human dopamine D2L receptors (long isoform) (Homo sapiens, UniProt P14416).
T2 construct: expressed in transfected cells; membranes used
Briefly: Dopamine D2L receptor binding, displacement of [125I]-iodospiperone. Conditions: Ki(D2L)/Ki(D3); human D2L and D3 receptors in HEK-293 membranes. As to the method:
as §1
II. Dopamine D2L receptor: • The mixture (1 ml) was composed of membranes from ˜10^6 HEK-293 cells with stably expressed human dopamine D2L receptors (long isoform) and 0.01 nM [^125I]-iodospiperone and incubation buffer (total binding) or additionally test substance (inhibition plot) or 1 μM haloperidol (nonspecific binding). Triplicate assays were carried out. • The incubation buffer contained 50 mM Tris, 120 mM NaCl, 5 mM KCl, 2 mM CaCl2, 2 mM MgCl2 and 0.1% bovine serum albumin. The buffer was adjusted to 7.4 with HCl.
as §2

The mark [3] stands for this setting: membranes from HEK-293 cells with stably expressed human dopamine D3 receptors, 0.1 nM [125I]-iodosulpride, 25° C., 60 minutes, read-out: Ki (D3).

T1 sequence (P35462 whole entry): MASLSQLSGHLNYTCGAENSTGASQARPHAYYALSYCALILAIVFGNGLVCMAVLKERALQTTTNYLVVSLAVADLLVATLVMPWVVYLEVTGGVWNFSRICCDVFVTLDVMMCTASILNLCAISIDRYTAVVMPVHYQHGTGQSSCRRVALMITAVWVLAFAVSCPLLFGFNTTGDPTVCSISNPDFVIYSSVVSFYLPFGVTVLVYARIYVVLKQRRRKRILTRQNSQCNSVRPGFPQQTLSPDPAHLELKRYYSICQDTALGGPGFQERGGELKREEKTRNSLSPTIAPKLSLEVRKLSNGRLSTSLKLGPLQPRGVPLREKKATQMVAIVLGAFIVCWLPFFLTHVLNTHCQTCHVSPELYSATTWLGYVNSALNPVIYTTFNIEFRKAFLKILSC
T2 sequence (P14416 whole entry, canonical isoform): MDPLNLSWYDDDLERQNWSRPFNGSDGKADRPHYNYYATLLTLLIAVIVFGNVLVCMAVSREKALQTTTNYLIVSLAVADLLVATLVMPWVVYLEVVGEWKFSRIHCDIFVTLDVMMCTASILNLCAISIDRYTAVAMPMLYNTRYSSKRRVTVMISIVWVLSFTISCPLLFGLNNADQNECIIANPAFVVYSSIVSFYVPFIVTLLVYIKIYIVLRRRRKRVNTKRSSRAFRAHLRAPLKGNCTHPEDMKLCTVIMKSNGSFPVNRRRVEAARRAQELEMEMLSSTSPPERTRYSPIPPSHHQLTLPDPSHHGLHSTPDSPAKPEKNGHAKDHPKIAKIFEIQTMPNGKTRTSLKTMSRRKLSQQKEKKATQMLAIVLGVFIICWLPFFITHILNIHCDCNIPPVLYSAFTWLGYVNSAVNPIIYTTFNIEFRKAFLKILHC

Usually Ki stands for the dissociation constant of the complex between target and ligand, obtained from inhibition or displacement. As to `CCCN1CCc2ccc(NS(=O)(=O)c3ccc(OC(F)(F)F)cc3)cc2CC1` [Example 2, N-(3-Propyl-2,3,4,5-Tetrahydro-1H-3-Benzazepin-7-yl)-4-Trifluoromethoxy-Benzenesulfonamide], the Ki in test [1] (setting [3]) came out at 7.1 nM. Also, the “Selectivity vs. D2L*” value in test [2] is 99.

Consider `CCCN1CCc2ccc(NS(=O)(=O)c3ccc(Cl)cc3)cc2CC1` [Example 3, 4-Chloro-N-(3-Propyl-2,3,4,5-Tetrahydro-1H-3-Benzazepin-7-yl)Benzenesulfonamide], for which, in test [1] (setting [3]), the Ki is 4.1 nM. Moreover, the “Selectivity vs. D2L*” value in test [2] is reported as 68.

For the molecule `C=Cc1ccc(S(=O)(=O)Nc2ccc3c(c2)CCN(CCC)CC3)cc1.Cl` [Example 4, N-(3-Propyl-2,3,4,5-Tetrahydro-1H-3-Benzazepin-7-yl)-4-Vinylbenzenesulfonamide Hydrochloride], the Ki in test [1] (setting [3]) is 0.5 nM. Moreover, the “Selectivity vs. D2L*” value in test [2] stood at 435.

Take `CCCN1CCc2ccc(NS(=O)(=O)c3ccc(CC)cc3)cc2CC1.Cl` [Example 5, 4-Ethyl-N-(3-Propyl-2,3,4,5-Tetrahydro-1H-3-Benzazepin-7-yl)Benzenesulfonamide Hydrochloride]: the Ki in test [1] (setting [3]) came to 1 nM. Further, the “Selectivity vs. D2L*” value in test [2] was determined as 368.

With `CCCN1CCc2ccc(NS(=O)(=O)c3ccc(C(F)(F)F)cc3)cc2CC1.Cl` [Example 6, N-(3-Propyl-2,3,4,5-Tetrahydro-1H-3-Benzazepin-7-yl)-4-(Trifluoromethyl)-Benzenesulfonamide Hydrochloride], the Ki in test [1] (setting [3]) was found to be 5.8 nM. In addition, the “Selectivity vs. D2L*” value in test [2] is on record as 252.

For `CCCN1CCc2ccc(NS(=O)(=O)c3ccc(C(C)(C)C)cc3)cc2CC1.Cl` [Example 7, 4-Tert-Butyl-N-(3-Propyl-2,3,4,5-Tetrahydro-1H-3-Benzazepin-7-yl)Benzenesulfonamide Hydrochloride], the Ki in test [1] (setting [3]) is 4.1 nM. In test [2], the “Selectivity vs. D2L*” value was found to be 120.

In the case of `CCCN1CCc2ccc(NS(=O)(=O)c3ccc(C(C)C)cc3)cc2CC1.Cl` [Example 8, 4-Isopropyl-N-(3-Propyl-2,3,4,5-Tetrahydro-1H-3-Benzazepin-7-yl)Benzenesulfonamide Hydrochloride], the Ki in test [1] (setting [3]) is 0.3 nM. For the same molecule, the “Selectivity vs. D2L*” value in test [2] was 330.

For `CCCN1CCc2ccc(NS(=O)(=O)c3ccc(C(C)=O)cc3)cc2CC1` [Example 10, 4-Acetyl-N-(3-Propyl-2,3,4,5-Tetrahydro-1H-3-Benzazepin-7-yl)Benzenesulfonamide], the Ki in test [1] (setting [3]) came to 16.5 nM. For the same molecule, the “Selectivity vs. D2L*” value in test [2] turned out to be 271.

In the case of `CCCN1CCc2ccc(NS(=O)(=O)c3ccc(C)cc3)cc2CC1.O=C(O)C(F)(F)F` [Example 11, 4-Methyl-N-(3-Propyl-2,3,4,5-Tetrahydro-1H-3-Benzazepin-7-yl)Benzene Sulfonamide Trifluoroacetate], the Ki in test [1] came to 4.7 nM. The “Selectivity vs. D2L*” value in test [2] is 112.

As for `CCCN1CCc2ccc(NS(=O)(=O)c3c(C)cc(C)cc3C)cc2CC1.O=C(O)C(F)(F)F` [Example 12, 2,4,6-Trimethyl-N-(3-Propyl-2,3,4,5-Tetrahydro-1H-3-Benzazepin-7-yl)-Benzenesulfonamide Trifluoroacetate], the Ki in test [1] (setting [3]) was found to be 7.2 nM. Besides, the “Selectivity vs. D2L*” value in test [2] stood at 90.

Consider `CCCCc1ccc(S(=O)(=O)Nc2ccc3c(c2)CCN(CCC)CC3)cc1.O=C(O)C(F)(F)F` [Example 13, 4-Butyl-N-(3-Propyl-2,3,4,5-Tetrahydro-1H-3-Benzazepin-7-yl)Benzene-Sulfonamide Trifluoroacetate], for which, in test [1] (setting [3]), the Ki was 0.6 nM. For the same molecule, the “Selectivity vs. D2L*” value in test [2] was determined as 143.

With `CCCN1CCc2ccc(NS(=O)(=O)c3ccc(C(C)(C)CC)cc3)cc2CC1.O=C(O)C(F)(F)F` [Example 14, 4-(1,1-Dimethylpropyl)-N-(3-Propyl-2,3,4,5-Tetrahydro-1H-3-Benzazepin-7-yl)Benzenesulfonamide Trifluoroacetate], the Ki in test [1] (setting [3]) is 3.6 nM. The “Selectivity vs. D2L*” value in test [2] is on record as 113.

Regarding `CCCN1CCc2ccc(NS(=O)(=O)c3ccc(OC)cc3)cc2CC1.O=C(O)C(F)(F)F` [Example 16, 4-Methoxy-N-(3-Propyl-2,3,4,5-Tetrahydro-1H-3-Benzazepin-7-yl)Benzene-Sulfonamide Trifluoroacetate], in test [1] (setting [3]), the Ki is 8.1 nM. In addition, in test [2], the “Selectivity vs. D2L*” value stood at 142.

Take `CCCN1CCc2ccc(NS(=O)(=O)c3ccc4ccccc4c3)cc2CC1.O=C(O)C(F)(F)F` [Example 17, N-(3-Propyl-2,3,4,5-Tetrahydro-1H-3-Benzazepin-7-yl)Naphthalene-2-Sulfonamide Trifluoroacetate]: the Ki in test [1] (setting [3]) stood at 4.5 nM. In addition, the “Selectivity vs. D2L*” value in test [2] is recorded as 68.

As to `CCCN1CCc2ccc(NS(=O)(=O)c3ccc(Cl)cc3Cl)cc2CC1.O=C(O)C(F)(F)F` [Example 18, 2,4-Dichloro-N-(3-Propyl-2,3,4,5-Tetrahydro-1H-3-Benzazepin-7-yl)Benzenesulfonamide Trifluoroacetate], the Ki in test [1] (setting [3]) is 7.3 nM. For the same molecule, in test [2], the “Selectivity vs. D2L*” value amounted to 85.

In the case of `CCCN1CCc2ccc(NS(=O)(=O)c3ccc(Br)cc3)cc2CC1.O=C(O)C(F)(F)F` [Example 19, 4-Bromo-N-(3-Propyl-2,3,4,5-Tetrahydro-1H-3-Benzazepin-7-yl)Benzene-Sulfonamide Trifluoroacetate], the Ki in test [1] worked out at 3 nM. Moreover, in test [2], the “Selectivity vs. D2L*” value was found to be 65.

Regarding `CCCN1CCc2ccc(NS(=O)(=O)c3ccc(Br)cc3C)cc2CC1.O=C(O)C(F)(F)F` [Example 20, 4-Bromo-2-Methyl-N-(3-Propyl-2,3,4,5-Tetrahydro-1H-3-Benzazepin-7-yl)-Benzenesulfonamide Trifluoroacetate], in test [1] (setting [3]), the Ki came to 7.1 nM. In addition, the “Selectivity vs. D2L*” value in test [2] is 85.

`CCCN1CCc2ccc(NS(=O)(=O)c3ccc(Cl)s3)cc2CC1.O=C(O)C(F)(F)F` [Example 21, N-(3-Propyl-2,3,4,5-Tetrahydro-1H-3-Benzazepin-7-yl)-5-Chlorothiophene-2-Sulfonamide Trifluoroacetate] showed a Ki in test [1] of 16 nM. For the same molecule, in test [2], the “Selectivity vs. D2L*” value is 47.

As for `CCCN1CCc2ccc(NS(=O)(=O)c3cc(Cl)sc3Cl)cc2CC1.O=C(O)C(F)(F)F` [Example 22, N-(3-Propyl-2,3,4,5-Tetrahydro-1H-3-Benzazepin-7-yl)-2,5-Dichlorothiophene-3-Sulfonamide Trifluoroacetate], the Ki in test [1] was determined as 13 nM. In test [2], the “Selectivity vs. D2L*” value was determined as 46.

For `CCCN1CCc2ccc(N(C)S(=O)(=O)c3ccc(C(C)C)cc3)cc2CC1.O=C(O)C(F)(F)F` [Example 31, 4-Isopropyl-N-Methyl-N-(3-Propyl-2,3,4,5-tetrahydro-1H-3-Benzazepin-7-yl)Benzenesulfonamide Trifluoroacetate], the Ki in test [1] (setting [3]) turned out to be 1 nM. In addition, the “Selectivity vs. D2L*” value in test [2] amounted to 63.

As to `CCCN1CCc2ccc(S(=O)(=O)Nc3ccc(OC(F)(F)F)cc3)cc2CC1.Cl` [Example 35, 3-Propyl-N-[4-(Trifluoromethoxy)Phenyl]-2,3,4,5-Tetrahydro-1H-3-Benzazepine-7-Sulfonamide Hydrochloride], the Ki in test [1] (setting [3]) is 28.2 nM. In test [2], the “Selectivity vs. D2L*” value is reported as 40.

Turning to `CCCN1CCc2ccc(CS(=O)(=O)c3ccc(C(C)C)cc3)cc2CC1` [Example 36, 7-(4-Isopropylbenzenesulfonylmethyl)-3-Propyl-2,3,4,5-Tetrahydro-1H-3-Benzazepine], the Ki in test [1] (setting [3]) came to 1 nM. The “Selectivity vs. D2L*” value in test [2] is recorded as 446.
